{"source": "patent US20240376149A1", "about": "“Novel Modulators of GABABR1a” (VIB VZW, priority 2021, published 2024)", "key": {"[1]": {"biological_target": "T1, sushi domain 1 (SD1) of GABABR1a (Homo sapiens, UniProt Q9UBS5)", "T1 construct": "The synthetic gene encoding for residues 26-96 of the Sushi1 protein was cloned into a pFloat-SUMO vector; His-SUMO (with 3C protease site) (N, cleaved yes); made in house; host or cells: E. coli BL21(DE3)", "test": "Isothermal titration calorimetry (ITC) direct binding assay", "settings": "for ITC Kd: peptide titrated into Sushi-1 protein in PBS", "excerpt": "In contrast to the FP assay, the isothermal titration calorimetry (ITC) assay is a direct binding assay.\nFor biophysical and structural biology purposes the Sushi1 protein was expressed in a bacterial expression system. The synthetic gene encoding for residues 26-96 of the Sushi1 protein was cloned into a pFloat-SUMO vector, generating a His-tagged SUMO-Sushi1 fusion protein. The construct also contained a 3C protease cleavage site to remove the His-SUMO-tag. The pFloat-SUMO-Sushi1 plasmid was transformed in BL21(DE3) cells and plated on kanamycin ([…]) containing LB agar plates. A small LB culture, supplemented with […] kanamycin, was inoculated with a single colony of BL21(DE3)(pFloat-SUMO-Sushi1) and grown overnight at 37° C. 1 liter LB cultures were subsequently inoculated with 20 ml of this preculture and grown at 37° C. until OD600 reached 0.8. At this point protein expression was induced using 0.5 mM isopropyl β-D-1-thiogalactopyranoside (IPTG). Cells were incubated further overnight at 20° C. and subsequently harvested by centrifugation (Beckman rotor 8.1000, 5000 rpm, 15 min, 4C). The pellet was resuspended in 20 mM Tris pH 7.5, 500 mM NaCl, 10 mM imidazole, 5 mM β-mercaptoethanol, 0.1 mg/mL 4-(2-aminoethyl) benzenesulfonyl fluoride hydrochloride (AEBSF), 1 μg/mL leupeptine, 50 μg/mL DNasel and 20 mM MgCl2. The cells were lysed using a French press (Constant Systems) at 20 kpsi and the cell debris was removed by centrifugation. The cell lysate was loaded on a Ni-sepharose FF HiLoad column (GE Healthcare), equilibrated in 20 mM Tris pH 7.5, 500 mM NaCl, 10 mM imidazole, 5 mM […]. The bound proteins were eluted using a linear gradient to 500 mM imidazole. Fractions containing the His-SUMO-Sushi1 protein were pooled and dialysed overnight to 20 mM Tris pH 7.5, 150 mM NaCl, while cleaving with 3C protease. The cleaved sample was loaded again on a Ni-sepharose FF HiLoad column, equilibrated in the same buffer. The FT, containing the Sushi1 protein, was concentrated and applied to a BioRad S100 16/60 size exclusion column, equilibrated in 50 mM KPi buffer pH 6.0, 50 mM NaCl.\n(§1) The Sushi-1 protein was dialysed overnight to PBS buffer and diluted to 30 μM in the same buffer. The peptides were resuspended in PBS at a stock concentration of 3 mM and diluted further in the same buffer to 300 μM. ITC experiments were performed on a Microcal ITC200 device. Titrations comprised 26×1.5 μL injections of peptide into protein, with 90 s intervals. An initial injection of ligand (0.5 μL) was made and discarded during data analysis. The data were fitted to a single binding site model using the Microcal LLC ITC200. Original software provided by the manufacturer."}, "[2]": {"biological_target": "T2, GABABR1a-SD1 (SD1-FITC-9mer complex) (Homo sapiens, UniProt Q9UBS5)", "T2 construct": "The synthetic gene encoding for residues 26-96 of the Sushi1 protein was cloned into a pFloat-SUMO vector; His-SUMO (with 3C protease site) (N, cleaved yes); made in house; host or cells: E. coli BL21(DE3)", "T2 sequence (Q9UBS5 26-96, one chain of several)": "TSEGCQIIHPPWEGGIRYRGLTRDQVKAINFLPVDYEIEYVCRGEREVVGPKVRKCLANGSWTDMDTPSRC", "test": "Fluorescence polarization (FP) competition assay with FITC-9mer", "format": "binding", "settings": "peptide at 50 μM; inhibition of FITC-9mer binding to SD1", "description": "Intrigued by the surprising results of the 5-mer, it was decided to set up a medium- to high-throughput screen to optimize the 5-mer sequence. Several assays were tested to find a reproducible, robust and cost-effective assay that is also suitable for high-throughput screening. A fluorescence polarization (FP) assay was selected. FP measurements are well-known for receptor binding assays. The assay is based on the rotational movement of fluorescently labelled molecules in solution. […] The FP assay was optimized using the FITC labelled sAPP 9-mer (FIG. 1).\nTo screen for GABABR1a binders using unlabelled test compounds, the assay was turned into a competition assay using FITC-9mer. […] To validate this inhibitor assay, the IC50 values were determined of the 17-mer, 9-mer, 5-mer as well as those from 3 negative controls: 10-mer, scrambled 17-mer and a scrambled 9-mer (FIG. 2).\nTo determine if the peptides of this application were able to disrupt the SD1-9-mer complex, each peptide (in single point or dose-response curve) tested was incubate with SD1 protein for 1 h at RT. After this initially incubation, FITC-9mer was added to the previous mix and incubated during 2 h at RT. The signal intensity was measure in an appropriate plate reader using the following settings: Number of flashes per well: 200; Excitation: F482-16; Dichroic filter: FLP 504; Emission A F530-40; Gain A: 738, Gain B: 736. The assay was conducted in a 384-well plate."}, "[3]": {"biological_target": "T3, HEK293 cells expressing the ectodomain of GABABR1a comprising SD1 (Homo sapiens, UniProt Q9UBS5)", "T3 construct": "HEK293 were transfected with plasmids encoding the ectodomain of GABABR1a (as in Rice et al., 2019); expressed in transfected cells; host or cells: HEK293", "T3 sequence (Q9UBS5 20-591 limits assumed)": "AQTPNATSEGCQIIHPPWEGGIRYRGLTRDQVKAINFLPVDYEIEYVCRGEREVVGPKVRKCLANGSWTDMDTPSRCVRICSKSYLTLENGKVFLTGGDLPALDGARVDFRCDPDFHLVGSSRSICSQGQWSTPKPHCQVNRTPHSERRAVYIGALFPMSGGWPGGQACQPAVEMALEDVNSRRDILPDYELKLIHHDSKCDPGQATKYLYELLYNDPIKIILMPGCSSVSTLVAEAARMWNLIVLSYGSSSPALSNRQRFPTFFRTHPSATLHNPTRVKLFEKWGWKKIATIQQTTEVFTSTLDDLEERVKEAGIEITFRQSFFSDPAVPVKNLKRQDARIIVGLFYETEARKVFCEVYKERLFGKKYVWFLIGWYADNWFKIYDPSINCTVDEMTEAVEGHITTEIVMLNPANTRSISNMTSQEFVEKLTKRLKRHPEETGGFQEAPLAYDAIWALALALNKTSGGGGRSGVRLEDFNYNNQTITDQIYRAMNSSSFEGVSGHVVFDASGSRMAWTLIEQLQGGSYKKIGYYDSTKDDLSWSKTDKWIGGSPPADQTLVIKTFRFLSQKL", "test": "Flow-cytometry cell-based binding assay, competition with biotinylated 9-mer", "settings": "peptide at 100 μM, inhibition of biotin-9mer (10 μM) binding", "description": "HEK cells expressing GABABR1a-SD1 were incubated with peptides of the application and the binding of 9-mer in the presence of the peptides was measured. The 9-mer peptide is biotinylated and detected with a commercial antibody.\nNext, the top ranking compounds were tested in a cell-based binding assay. HEK293 cells were transformed to express the ectodomain of GABABR1a comprising SD1. In this cell-based assay, SD1 is expressed on the GABABR1a ectodomain and can adopt a more physiological conformation, compared to the purified SD1 protein used in the primary assay (FP assay).\nHEK293 were transfected with plasmids encoding the ectodomain of GABABR1a (as in Rice et al., 2019), carrying a His-tag at the N-terminal. After 24 h of expression, cells were harvested and adjusted to a concentration of 1×10^6 cells/mL in ice-cold 2% FBS/PBS. Incubation with each peptide (in dose-response curve) was carried out at 4° C. for 1 h, followed by incubation with the biotion-9mer (10 μM) peptide during 30 min. Detection antibodies recognizing either His protein or biotin were added for a period of 30 min. The assay plate containing the cells was loaded into the Attune NxT Cytometer, parameters were adjusted accordingly with the cell type and signal intensity. In each experiment, positive and negative control were added to the plate."}, "[4]": {"tested_on": "acute mouse hippocampal slices, CA3-CA1 Schaffer collateral (SC) synapses", "test": "Ex vivo fEPSP short-term facilitation in acute hippocampal slices (multi-electrode array)", "format": "cell-based", "description": "The effect of a selection of GABABR1a-SD1 binders on synaptic transmission was tested in an ex vivo experiment using acute mouse hippocampal slices comprising an intact circuit of CA3-CA1 Schaffer collateral (SC) synapses. In short, a burst of 5 stimuli at 20 Hz was applied to Schaffer collaterals to induce short-term facilitation, which inversely correlates with the probability of neurotransmitter release.\nRecordings were done in C57BL/6J mice (2 months old). For tissue preparation, mice were anesthetized with isoflurane and rapidly decapitated to prepare acute 300 μm-thick parasagittal brain slices on a Leica VT1200 vibratome. Slicing was performed in cold sucrose based cutting solution (ACSF) that consisted of (in mM): 87 NaCl, 2.5 KCl, 1.25 NaH2PO4, 10 glucose, 25 NaHCO3, 0.5 CaCl2, 7 MgCl2, 75 sucrose, 1 kynurenic acid, 5 ascorbic acid, 3 pyruvic acid (pH 7.4 with 5% CO2/95% O2). Slices were allowed to recover at 34° C. for 35 min, and subsequently maintained at room temperature for at least 30 min before use. Before recordings, slices were preincubated in artificial cerebrospinal fluid (ACSF, 119 mM NaCl, 2.5 mM KCl, 1 mM NaH2PO4, 11 mM glucose, 26 mM NaHCO3, 4 mM MgCl2 and 4 mM CaCl2, pH 7.4) containing peptide of interest or scrambled/control peptide (1 or 10 uM). Preincubation was performed in the multielectrode array recording chamber (60MEA200/30iR-Ti-gr, Multichannel Systems) for 60 min at 32° C., using custom-made local carbogenation rings (5% CO2/95% 02). Field excitatory post-synaptic potentials (fEPSPs) were recorded from Schaffer collateral-CA1 synapses by stimulating and recording from the appropriate (visually identified) electrodes (MEA-2100, Multichannel Systems). Input-output curves were recorded for each slice by applying single-stimuli ranging from 500 to 2750 mV with 250 mV increments. […] Train stimulations of 10, 20 and 50 Hz (5 stimuli per train) were recorded with 10 minutes intervals. Recordings were processed and analysed using Multi Channel Experimenter software (Multi Channel Systems)."}, "[5]": {"biological_target": "T4, Sushi domain 1 of the human GABA B1a receptor (human, UniProt Q9UBS5 26-96)", "T4 construct": "Purified recombinant protein from E. coli; also called SD1; GABABR1a-SD1", "T4 sequence (Q9UBS5 26-96 limits assumed)": "as the sequence (Q9UBS5 26-96, one chain of several) above", "test": "ITC", "description": "In the mutagenesis experiment of Example 1 we also included an 8-mer lacking position 9.\nas §1, with “ITC₂₀₀.” for “ITC200.”"}}, "note": "Where a SMILES comes first, the peptide text is derived from it. Where no end group is shown, it is not given here. [ ]: non-standard residue; d: D form. F72 = not defined here"}
{"molecule": "CC[C@H](C)[C@H](NC(=O)[C@H](N)CC(=O)O)C(=O)N[C@@H](Cc1c[nH]c2cc(Cl)ccc12)C(=O)N[C@@H](Cc1c[nH]c2ccccc12)C(=O)N[C@@H](CO)C(=O)O", "note": "[VIB-0068894]", "values": [{"measurement": "ITC Kd", "setting": "[1]", "result": "bound as good as the 17-mer"}, {"measurement": "inhibition at 50 µM", "setting": "[2]", "result": 96.8, "unit": "%"}, {"measurement": "inhibition at 100 µM", "setting": "[3]", "result": 84.2, "unit": "%"}]}
{"molecule": "CC[C@H](C)[C@H](NC(=O)[C@H](N)CC(=O)O)C(=O)N[C@@H](CCc1ccccc1)C(=O)N[C@@H](Cc1c[nH]c2ccccc12)C(=O)N[C@@H](CO)C(=O)O", "note": "[VIB-0068910]", "values": [{"measurement": "inhibition at 50 µM", "setting": "[2]", "result": 88.6, "unit": "%"}, {"measurement": "inhibition at 100 µM", "setting": "[3]", "result": 54.2, "unit": "%"}]}
{"molecule": "CC(C)[C@H](NC(=O)[C@H](CC(=O)O)NC(=O)[C@@H](CO)NC(=O)[C@@H](CC(=O)O)NC(=O)[C@H](N)CC(=O)O)C(=O)N[C@@H](Cc1c[nH]c2ccccc12)C(=O)N[C@@H](Cc1c[nH]c2ccccc12)C(=O)NCC(=O)NCC(=O)O", "note": "[VIB_P07, {D-ASP}{D-ASP}{D-SER}DVWWGG] (H-[dD][dD][dS]DVWWGG-OH; N-terminus and C-terminus assumed)", "values": [{"measurement": "Kd", "setting": "[1]", "result": 11, "unit": "µM"}]}
{"molecule": "CC(C)[C@H](NC(=O)[C@H](CC(=O)O)NC(=O)[C@H](CO)NC(=O)[C@@H](CC(=O)O)NC(=O)[C@@H](N)CC(=O)O)C(=O)N[C@@H](Cc1c[nH]c2ccccc12)C(=O)N[C@@H](Cc1c[nH]c2ccccc12)C(=O)NCC(=O)NCC(=O)O", "note": "[VIB_P09, D{D-ASP}SDVWWGG] (H-D[dD]SDVWWGG-OH; N-terminus and C-terminus assumed)", "values": [{"measurement": "Kd", "setting": "[1]", "result": 11, "unit": "µM"}]}
{"molecule": "DDSDVWWG [VIB_P20, DDSDVWWG]", "values": [{"measurement": "Kd", "setting": "[1]", "result": 1.95, "unit": "µM"}]}
{"molecule": "DDSDVWWGGADTDYADG [Peptide 17-mer, DDSDVWWGGADTDYADG]", "values": [{"measurement": "Ex vivo assay 1 μM (short-term facilitation)", "setting": "[4]; peptide 1 μM, vs scrambled control peptide, burst of 5 stimuli at 20 Hz, listed as sAPP 17-mer", "result": "increased the facilitation"}, {"measurement": "Increase in facilitation after preincubation with GABABR antagonist CGP-54626", "setting": "[4]; peptide 1 μM, CGP-54626 10 μM preincubation", "result": "blocked"}, {"measurement": "Ex vivo assay 10 μM (short-term facilitation)", "setting": "[4]; peptide 10 μM, vs scrambled negative control at 10 μM", "result": "statistically significant increase in short-term facilitation"}]}
{"molecule": "VIB-0068911: non-natural 5-mer d-I-F72-W-S; d = D-aspartate, F72 = (isoethylmethyl)benzene ([dD]I[F72]WS; not fully specified; printed as d-I-F72-W-S; reading uncertain)", "values": [{"measurement": "ITC Kd", "setting": "[1]", "result": "bound as good as the 17-mer"}]}
{"molecule": "ADSAVWWGG", "note": "[VIB_P05]", "values": [{"measurement": "binding result", "setting": "[5]", "result": "binds"}]}
{"molecule": "DDSDAWWGG", "note": "[VIB_P16]", "values": [{"measurement": "binding result", "setting": "[5]", "result": "binds"}]}
{"molecule": "DDSDVWAGG", "note": "[VIB_P18]", "values": [{"measurement": "binding result", "setting": "[5]", "result": "binds"}]}
{"molecule": "DDSDVAWGG", "note": "[VIB_P17]", "values": [{"measurement": "binding result", "setting": "[5]", "result": "binds"}]}
